Legend:
Format in all cases: cell-based, human
NCI/ADR-RES = assay: NCI 60 cell line screen (SRB), Breast Cancer
Text: (§1) The operation of this screen utilizes 60 different human tumor cell lines, representing leukemia, melanoma and cancers of the lung, colon, brain, ovary, breast, prostate, and kidney. The aim is to prioritize for further evaluation, synthetic compounds or natural product samples showing selective growth inhibition or cell killing of particular tumor cell lines. This screen is unique in that the complexity of a 60 cell line dose response produced by a given compound results in a biological response pattern which can be utilized in pattern recognition algorithms. Using these algorithms, it is possible to assign a putative mechanism of action to a test compound, or to determine that the response pattern is unique and not similar to that of any of the standard prototype compounds included in the NCl database (see DTP Overview tab). In addition, following characterization of various cellular molecular targets in the 60 cell lines, it may be possible to select compounds most likely to interact with a specific molecular target.
(§2) The human tumor cell lines of the cancer screening panel are grown in RPMI 1640 medium containing 5% fetal bovine serum and 2 mM L-glutamine. For a typical screening experiment, cells are inoculated into 96 well microtiter plates in 100 μL at plating densities ranging from 5,000 to 40,000 cells/well depending on the doubling time of individual cell lines. After cell inoculation, the microtiter plates are incubated at 37° C., 5% CO2, 95% air and 100% relative humidity for 24 h prior to addition of experimental drugs.
(§3) After 24 h, two plates of each cell line are fixed in situ with TCA, to represent a measurement of the cell population for each cell line at the time of drug addition (Tz). Experimental drugs are solubilized in dimethyl sulfoxide at 400-fold the desired final maximum test concentration and stored frozen prior to use. At the time of drug addition, an aliquot of frozen concentrate is thawed and diluted to twice the desired final maximum test concentration with complete medium containing 50 μg/ml gentamicin. Additional four, 10-fold or ½ log serial dilutions are made to provide a total of five drug concentrations plus control. Aliquots of 100 μl of these different drug dilutions are added to the appropriate microtiter wells already containing 100 μl of medium, resulting in the required final drug concentrations.
(§4) Following drug addition, the plates are incubated for an additional 48 h at 37° C., 5% CO2, 95% air, and 100% relative humidity. For adherent cells, the assay is terminated by the addition of cold TCA. Cells are fixed in situ by the gentle addition of 50 μl of cold 50% (w/v) TCA (final concentration, 10% TCA) and incubated for 60 minutes at 4° C. The supernatant is discarded, and the plates are washed five times with tap water and air dried. Sulforhodamine B (SRB) solution (100 μl) at 0.4% (w/v) in 1% acetic acid is added to each well, and plates are incubated for 10 minutes at room temperature. After staining, unbound dye is removed by washing five times with 1% acetic acid and the plates are air dried. Bound stain is subsequently solubilized with 10 mM trizma base, and the absorbance is read on an automated plate reader at a wavelength of 515 nm. For suspension cells, the methodology is the same except that the assay is terminated by fixing settled cells at the bottom of the wells by gently adding 50 μl of 80% TCA (final concentration, 16% TCA). Using the seven absorbance measurements [time zero, (Tz), control growth, (C), and test growth in the presence of drug at the five concentration levels (Ti)], the percentage growth is calculated at each of the drug concentrations levels. Percentage growth inhibition is calculated as: [(Ti−Tz)/(C−Tz)]×100 for concentrations for which Ti>/=Tz [(Ti−Tz)/Tz]×100 for concentrations for which Ti<Tz.
(§5) Three dose response parameters are calculated for each experimental agent. […]

MDA-MB-231/ATCC = assay: NCI 60 cell line screen (SRB), Breast Cancer
Text: as §1, §2, §3, §4, §5

MCF7 = assay: NCI 60 cell line screen (SRB), Breast Cancer
Text: as §1, §2, §3, §4, §5

BT-549 = assay: NCI 60 cell line screen (SRB), Breast Cancer
Text: as §1, §2, §3, §4, §5

T-47D = assay: NCI 60 cell line screen (SRB), Breast Cancer
Text: as §1, §2, §3, §4, §5

HS 578T = assay: NCI 60 cell line screen (SRB), Breast Cancer
Text: as §1, §2, §3, §4, §5

MDA-MB-435 = assay: NCI 60 cell line screen (SRB), Breast Cancer
Text: as §1, §2, §3, §4, §5

PC-3 = assay: NCI 60 cell line screen (SRB), Prostate Cancer
Text: as §1, §2, §3, §4, §5

DU-145 = assay: NCI 60 cell line screen (SRB), Prostate Cancer
Text: as §1, §2, §3, §4, §5

[1] = read-out: LC50 (the source's name)

COc1cccc(CCNC(=O)CC(c2ccccc2)(c2ccccc2)c2ccccc2)c1 [Compound Z3]
GI50 (NCI/ADR-RES): 5.26 µM
TGI (NCI/ADR-RES): >1.00E−04
Percent Growth (NCI/ADR-RES; Log10 Concentration −4.0): 27%
Percent Growth (NCI/ADR-RES; Log10 Concentration −5.0): 42%
Percent Growth (NCI/ADR-RES; Log10 Concentration −6.0): 69%
Percent Growth (NCI/ADR-RES; Log10 Concentration −7.0): 93%
Percent Growth (NCI/ADR-RES; Log10 Concentration −8.0): 69%
CC50 (NCI/ADR-RES; [1]): > 100 µM
GI50 (MDA-MB-231/ATCC): > 100 µM
TGI (MDA-MB-231/ATCC): >1.00E−04
Percent Growth (MDA-MB-231/ATCC; Log10 Concentration −4.0): 147%
Percent Growth (MDA-MB-231/ATCC; Log10 Concentration −5.0): 75%
Percent Growth (MDA-MB-231/ATCC; Log10 Concentration −6.0): 59%
Percent Growth (MDA-MB-231/ATCC; Log10 Concentration −7.0): 69%
Percent Growth (MDA-MB-231/ATCC; Log10 Concentration −8.0): 68%
CC50 (MDA-MB-231/ATCC; [1]): > 100 µM
GI50 (MCF7; MCF7): 21.5 µM
TGI (MCF7; MCF7): >1.00E−04
Percent Growth (MCF7; MCF7, Log10 Concentration −4.0): 31%
Percent Growth (MCF7; MCF7, Log10 Concentration −5.0): 60%
Percent Growth (MCF7; MCF7, Log10 Concentration −6.0): 85%
Percent Growth (MCF7; MCF7, Log10 Concentration −7.0): 116%
Percent Growth (MCF7; MCF7, Log10 Concentration −8.0): 91%
CC50 (MCF7; MCF7, read-out: LC50 (the source's name)): > 100 µM
GI50 (BT-549; BT-549): > 100 µM
TGI (BT-549; BT-549): >1.00E−04
Percent Growth (BT-549; BT-549, Log10 Concentration −4.0): 69%
Percent Growth (BT-549; BT-549, Log10 Concentration −5.0): 81%
Percent Growth (BT-549; BT-549, Log10 Concentration −6.0): 107%
Percent Growth (BT-549; BT-549, Log10 Concentration −7.0): 126%
Percent Growth (BT-549; BT-549, Log10 Concentration −8.0): 100%
CC50 (BT-549; BT-549, read-out: LC50 (the source's name)): > 100 µM
GI50 (T-47D): > 100 µM
TGI (T-47D): >1.00E−04
Percent Growth (T-47D; Log10 Concentration −4.0): 84%
Percent Growth (T-47D; Log10 Concentration −5.0): 55%
Percent Growth (T-47D; Log10 Concentration −6.0): 78%
Percent Growth (T-47D; Log10 Concentration −7.0): 108%
Percent Growth (T-47D; Log10 Concentration −8.0): 78%
CC50 (T-47D; [1]): > 100 µM
GI50 (HS 578T; MS 578T): > 100 µM
TGI (HS 578T; MS 578T): >1.00E−04
Percent Growth (HS 578T; MS 578T, Log10 Concentration −4.0): 55%
Percent Growth (HS 578T; MS 578T, Log10 Concentration −5.0): 85%
Percent Growth (HS 578T; MS 578T, Log10 Concentration −6.0): 101%
Percent Growth (HS 578T; MS 578T, Log10 Concentration −7.0): 126%
Percent Growth (HS 578T; MS 578T, Log10 Concentration −8.0): 101%
CC50 (HS 578T; [1]): > 100 µM
GI50 (MDA-MB-435; MDA-MB-435): 6.5 µM
TGI (MDA-MB-435; MDA-MB-435): >1.00E−04
Percent Growth (MDA-MB-435; MDA-MB-435, Log10 Concentration −4.0): 28%
Percent Growth (MDA-MB-435; MDA-MB-435, Log10 Concentration −5.0): 40%
Percent Growth (MDA-MB-435; MDA-MB-435, Log10 Concentration −6.0): 91%
Percent Growth (MDA-MB-435; MDA-MB-435, Log10 Concentration −7.0): 109%
Percent Growth (MDA-MB-435; MDA-MB-435, Log10 Concentration −8.0): 92%
CC50 (MDA-MB-435; MDA-MB-435, read-out: LC50 (the source's name)): > 100 µM
GI50 (PC-3; PC-3): 6.12 µM
TGI (PC-3; PC-3): >1.00E−04
Percent Growth (PC-3; PC-3, Log10 Concentration −4.0): 12%
Percent Growth (PC-3; PC-3, Log10 Concentration −5.0): 39%
Percent Growth (PC-3; PC-3, Log10 Concentration −6.0): 90%
Percent Growth (PC-3; PC-3, Log10 Concentration −7.0): 96%
Percent Growth (PC-3; PC-3, Log10 Concentration −8.0): 100%
CC50 (PC-3; PC-3, read-out: LC50 (the source's name)): > 100 µM
GI50 (DU-145; DU-145): 26.8 µM
TGI (DU-145; DU-145): >1.00E−04
Percent Growth (DU-145; DU-145, Log10 Concentration −4.0): 31%
Percent Growth (DU-145; DU-145, Log10 Concentration −5.0): 64%
Percent Growth (DU-145; DU-145, Log10 Concentration −6.0): 88%
Percent Growth (DU-145; DU-145, Log10 Concentration −7.0): 93%
Percent Growth (DU-145; DU-145, Log10 Concentration −8.0): 88%
CC50 (DU-145; DU-145, read-out: LC50 (the source's name)): > 100 µM

Source: patent US7632972B2, “Compounds and methods for treatment of cancer and modulation of programmed cell death for melanoma and other cancer cells” (The Board of Trustees of the University of Illionis, priority 2003, dated 2009)
